Measured values: patent publication US20120214846A1, “HEXAHYDROCYCLOPENTYL[F]INDAZOLE PYRIDYL ETHANOLS AND DERIVATIVES THEREOF AS SELECTIVE GLUCOCORTICOID RECEPTOR MODULATORS” (MERCK SHARP & DOHME CORP, priority 2009, published 2012)

Assays:
[1] = tested on: female Sprague-Dawley rats, oxazolone (OX) contact dermatitis; assay: In Vivo Inflammation Assay (oxazolone contact dermatitis model); design: key to Inflammation Assay Glucose Effect / GL *: +: the glucose level increased compared to vehicle; −: the glucose level decreased compared to vehicle; conditions: rat; for Inflammation Assay Glucose Effect: glucose level compared to vehicle; for Inflammation Assay Anti-inflammatory Effect: relative to control compound
Protocol: In Vivo Inflammation Assay
Intact adult (6 month old) female Sprague-Dawley rats are used in the oxazolone (OX) contactdermatitis model. Rats were sensitized on the ventral abdomen with OX on Day 0. On Days 7 and 9, a randomly-selected ear was challenged (same ear each time) with OX; the other was treated with vehicle. Daily treatment begun on Day 7 and continued for 7d with test compounds at different doses and 1.3 mpk 6-methlyprednisolone or 0.1 mpk DEX as positive controls. The thickness of both ears are measured on Days 11 and 14. Necropsy occurred on Day 14. The rat is first weighed, then anesthetized in a CO2 chamber until near death. Approximately 5 ml whole blood is obtained by cardiac puncture. The rat is then examined for certain signs of death and completeness. Tissues are dissected in a highly stylized fashion. Then the following endpoints were evaluated: a) inhibiting ear inflammation induced by oxazalone, b) raising serum insulin, c) reducing serum ACTH, d) reducing spleen weight, e) reducing skin thickness, f) reducing body weight, g) increasing expression of bone-related genes with potential relationship to negative glucocorticoid effects on bone; e) changes in molecular markers that correlate with skin inflammation, skin thinning, muscle atrophy and glucose metabolism in liver. All blood samples were collected between 1330-1530 hours, ˜4-5 hrs after the last compound treatment.
Primary data for this assay are left and right ear thickness. Inter-ear thickness difference (etd) is used for the estimating the level of inflammation and effectiveness of the compounds is determined by their ability to reduce the increase the thickness of the inflamed ear. Back of the rat skin thickness, spleen weight, serum insulin as well as the effects of gcs on the expression of molecular markers in skin inflammation, skin atrophy, muscle atrophy and glucose metabolism in liver are measured. Data are analyzed by anova plus fisher plsd post-hoc test to identify intergroup differences.

GR = biological target: T1, GR (Homo sapiens, UniProt P04150); assay: GR Ligand Binding Assay (GR BIND), HeLa cell lysate, 3H-DEX; design: endogenous in cells; host or cells: HeLa (ATCC) cell lysate supernatant; conditions: HeLa cell lysate, 3H-DEX; read-out: GR BIND Ki
T1 sequence (P04150 1-777): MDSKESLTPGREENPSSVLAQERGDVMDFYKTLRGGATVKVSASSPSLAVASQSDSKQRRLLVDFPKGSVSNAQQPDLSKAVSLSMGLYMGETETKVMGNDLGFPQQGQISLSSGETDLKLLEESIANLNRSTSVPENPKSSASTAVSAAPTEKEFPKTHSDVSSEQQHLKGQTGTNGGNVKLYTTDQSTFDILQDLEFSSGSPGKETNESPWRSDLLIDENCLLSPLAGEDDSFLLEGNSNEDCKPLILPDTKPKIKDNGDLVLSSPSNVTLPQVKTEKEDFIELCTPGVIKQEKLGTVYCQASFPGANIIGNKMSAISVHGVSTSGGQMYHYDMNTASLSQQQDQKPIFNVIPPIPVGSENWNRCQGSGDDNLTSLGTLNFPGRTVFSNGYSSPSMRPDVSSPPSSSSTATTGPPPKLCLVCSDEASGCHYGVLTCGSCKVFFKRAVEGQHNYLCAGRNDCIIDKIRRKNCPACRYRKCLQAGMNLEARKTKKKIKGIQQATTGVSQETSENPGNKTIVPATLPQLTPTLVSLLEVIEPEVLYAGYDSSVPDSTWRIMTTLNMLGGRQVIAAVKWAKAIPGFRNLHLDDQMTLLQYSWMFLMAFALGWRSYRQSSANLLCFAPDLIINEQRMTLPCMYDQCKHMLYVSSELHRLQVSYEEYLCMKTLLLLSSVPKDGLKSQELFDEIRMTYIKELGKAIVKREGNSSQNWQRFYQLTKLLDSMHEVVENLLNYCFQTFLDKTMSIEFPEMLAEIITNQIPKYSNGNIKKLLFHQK
Protocol: Binding Buffer: TEGM (10 mM Tris-HCl, 1 mM EDTA, 10% glycerol, 1 mM beta-mecaptoethanol, 10 mM Sodium Molybdate, pH 7.2)
Phenol red-free Trypsin-EDTA is diluted in the same PBS 1:10. The cell layers are rinsed with 1× Trypsin, extra Trypsin is poured out, and the cell layers are incubated at 37° C. for ˜2 min. The flask is tapped and checked for signs of cell detachment. Once the cells begin to slide off the flask, the complete media is added. The cells are counted at this point, then diluted to the appropriate concentration and split into flasks or dishes for further culturing (Usually 1:3 to 1:6 dilution).
The cell pellet is washed twice with TEGM (10 mM Tris-HCl, 1 mM EDTA, 10% glycerol, 1 mM beta-mercaptoethanol, 10 mM Sodium Molybdate, pH 7.2). […] The cell suspension is snap frozen in liquid nitrogen or ethanol/dry ice bath and transferred to −80° C. freezer on dry ice. Before setting up the binding assay, the frozen samples are left on ice-water to just thaw (˜1 hr). Then the samples are centrifuged at 12,500 g to 20,000 g for 30 min at 4° C. The supernatant is used to set-up assay right away. If using 50 μL of supernatant, the test compound can be prepared in 50 μL of the TEGM buffer.
1×TEGM buffer is prepared, and the isotope-containing assay mixture is prepared in the following order: EtOH (2% final concentration in reaction), 3H-DEX (Amersham Biosciences) and 1×TEGM. [e.g. For 100 samples, 200 μL (100×2) of EtOH+4.25 μL of 1:10 3H-Dex stock+2300 μL (100×23) 1×TEGM]. The compound is serially diluted, e.g., if starting final conc. is 1 μM, and the compound is in 25 μL of solution, for duplicate samples, 75 μL of 4×1 μM solution is made and 3 μL of 100 μM is added to 72 μL of buffer, and 1:5 serial dilution.
25 μL of 3H-DEX (6 nM) trace and 25 μl, compound solution are first mixed together, followed by addition of 50 μL receptor solution. The reaction is gently mixed, spun briefly at about 200 rpm and incubated at 4° C. overnight. 100 μL of 50% HAP slurry is prepared and added to the incubated reaction which is then vortexed and incubated on ice for 5 to 10 minutes. The reaction mixture is vortexed twice more to resuspend HAP while incubating reaction. The samples in 96-well format are then washed in wash buffer using The FilterMate™ Universal Harvester plate washer (Packard). The washing process transfers HAP pellet containing ligand-bound expressed receptor to Unifilter-96 GF/B filter plate (Packard). The HAP pellet on the filter plate is incubated with 50 μL of MICROSCINT (Packard) scintillint for 30 minutes before being counted on the TopCount microscintillation counter (Packard). IC50s are calculated using DEX as a reference.

Row | SMILES | Inflammation Assay Glucose Effect [1] | Inflammation Assay Anti-inflammatory Effect [1] | Ki (GR) [nM]
1 | C[C@]12Cc3cnn(-c4ccc(F)cc4)c3C=C1CC[C@@]2(O)CC(O)c1cc(C#N)ccn1 (stereo partly drawn) [Example 9, 2-{2-[(4αS,5R)-1-(4-fluorophenyl)-5-hydroxy-4α-methyl-1,4,4α,5,6,7-hexahydrocyclopenta[f]indazol-5-yl]-1-hydroxyethyl}pyridine-4-carbonitrile] | + | + (the anti-inflammatory activity was equal to or greater than 40% of the effect generated by the control compound) | 2.1
2 | Cc1ccnc(C(O)C[C@]2(O)CCC3=Cc4c(cnn4-c4ccc(F)cc4)C[C@@]32C)c1 (stereo partly drawn) [Example 11, (4αS,5R)-1-(4-fluorophenyl)-5-[2-hydroxy-2-(4-methylpyridin-2-yl)ethyl]-4α-methyl-1,4,4α,5,6,7-hexahydrocyclopenta[f]indazol-5-ol] | + | + (the anti-inflammatory activity was equal to or greater than 40% of the effect generated by the control compound) | 3.9
